In patent publication US20120178672A1, “Compositions and Methods for Sparing Muscle in Renal Insufficiency and During Hemodialysis” (priority 2009, published 2012):

Test system: subjects
Assay: Rate of urea production by tracer technique after ingestion of EAAs following resistance exercise
Assay type: in vivo
Settings: infusion, same tracer methodology, same time interval
Procedure: Acute changes in the rate of urea production were measured using a tracer technique known to those of skill in the art. […] The reason for the lack of an increase in urea production is believed to be the reutilization of non-essential amino acids for muscle protein synthesis rather than transport to the liver for degradation and incorporation of the nitrogen into urea. This is reflected by the steady drop in the concentration of alanine in the blood, as depicted in the chart of FIG. 2B. Thus, the EAA blend greatly stimulates net muscle protein synthesis without increasing blood urea concentration. This aspect of the disclosed composition is of potentially great advantage to CKD patients, as the provision of intact protein alone increases blood urea while having minimal effect on muscle protein net balance.

| Compound | Urea production |
| --- | --- |
| C[C@H](N)C(=O)O [alanine] | stimulated urea significantly |
| NC(=O)CC[C@H](N)C(=O)O [glutamine] | stimulated urea significantly |
